# In US20130203662A1, “Mini-Hepcidin Peptides and Methods of Using Thereof” (priority 2008, published 2013):
# Bridge positions count the residues as written; N and C are the ends. Square brackets hold non-standard residues; d marks the D form. Ends that are not written are not given here. Peptide text beside a SMILES is read from it. * marks the point of attachment. Bip = N[C@@H](Cc1ccc(-c2ccccc2)cc1)C(=O)O; X3 = NC(=O)C[C@H](N*)C(c1ccccc1)c1ccccc1; Dip = N[C@H](C(=O)O)C(c1ccccc1)c1ccccc1; β3hF = N[C@H](CC(=O)O)Cc1ccccc1; β3hP = O=C(O)C[C@@H]1CCCN1; StBu = CC(C)(C)S*
# Target: T1, ferroportin fused to green fluorescent protein (ECR293/Fpn-GFP cells) (Mus musculus, UniProt Q9JHI9)
# T1 sequence (Q9JHI9 1-570): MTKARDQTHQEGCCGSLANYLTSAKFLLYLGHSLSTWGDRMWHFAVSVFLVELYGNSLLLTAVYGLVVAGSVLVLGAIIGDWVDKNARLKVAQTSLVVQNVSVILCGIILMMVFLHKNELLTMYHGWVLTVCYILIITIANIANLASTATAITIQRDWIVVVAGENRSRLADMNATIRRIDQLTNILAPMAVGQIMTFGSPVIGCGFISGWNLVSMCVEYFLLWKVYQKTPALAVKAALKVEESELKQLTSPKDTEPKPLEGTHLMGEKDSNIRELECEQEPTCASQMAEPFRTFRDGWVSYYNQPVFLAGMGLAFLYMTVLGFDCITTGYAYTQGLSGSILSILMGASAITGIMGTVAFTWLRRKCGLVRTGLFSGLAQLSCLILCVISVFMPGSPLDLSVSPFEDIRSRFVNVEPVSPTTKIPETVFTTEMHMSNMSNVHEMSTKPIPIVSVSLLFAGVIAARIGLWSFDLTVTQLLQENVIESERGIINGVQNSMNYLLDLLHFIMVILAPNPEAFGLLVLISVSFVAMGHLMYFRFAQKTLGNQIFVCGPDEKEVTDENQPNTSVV
# Assay: Flow cytometry of ferroportin-GFP internalization and degradation in ECR293/Fpn-GFP cells
# Format: cell-based
# Conditions: not given
# Description: In vitro activity may be measured by the dose-dependent loss of fluorescence of cells engineered to display ferroportin fused to green fluorescent protein as in Nemeth et al. (2006) Blood 107:328-33. […]
# FLOW CYTOMETRY. The activity of peptides of the present invention was measured by flow cytometry as previously described. See Nemeth et al. (2006) Blood 107:328-333, which is herein incorporated by reference. ECR293/Fpn-GFP, a cell line stably transfected with a ponasterone-inducible ferroportin construct tagged at the C-terminus with green fluorescent protein was used. See Nemeth et al. (2004) Science 306:2090-2093, which is herein incorporated by reference. Briefly, the cells were plated on poly-D-lysine coated plates in the presence of 20 μM FAC, with or without 10 μM ponasterone. After 24 hours, ponasterone was washed off, and cells were treated with peptides for 24 hours. Cells were then trypsinized and resuspended at 1×10^6 cells/ml, and the intensity of green fluorescence was analyzed by flow cytometry. […] Cells not induced with ponasterone to express Fpn-GFP were used to establish a gate to exclude background fluorescence. Cells induced with ponasterone, but not treated with any peptides, were used as the positive control. Each peptide was tested over the range of concentrations (0, 0.01, 0.03, 0.1, 0.3, 1, 3 and 10 μM). Each peptide treatment was repeated independently 3 to 6 times.
row,Compound,EC50 [nM]
1,CC[C@H](C)[C@H](NC(=O)[C@H](CS)NC(=O)[C@@H](NC(=O)[C@@H]1CCCN1C(=O)[C@@H](NC(=O)[C@@H](N)CC(=O)O)C(c1ccccc1)c1ccccc1)[C@@H](C)CC)C(=O)N[C@H](C(N)=O)C(c1ccccc1)c1ccccc1 [Pr41] (H-D[Dip]PICI[Dip]-NH2),300

# Same assay, conditions: concentration eliciting 50% of maximal loss of fluorescence generated by reference Hep25; 24 hours
row,Compound,EC50 [nM]
1,CC[C@H](C)[C@H](NC(=O)[C@H](CS)NC(=O)[C@@H](NC(=O)[C@@H]1CCCN1C(=O)[C@H](Cc1ccccc1)NC(=O)[C@H](Cc1c[nH]cn1)NC(=O)[C@@H](NC(=O)[C@@H](N)CC(=O)O)[C@@H](C)O)[C@@H](C)CC)C(=O)N[C@@H](CC(N)=O)C(c1ccccc1)c1ccccc1 [F9bhDpa] (H-DTHFPICI-X3),100
2,CC[C@H](C)[C@H](NC(=O)[C@H](CS)NC(=O)[C@@H](NC(=O)[C@@H]1CCCN1C(=O)[C@H](Cc1ccccc1)NC(=O)[C@H](Cc1c[nH]cn1)NC(=O)[C@@H](NC(=O)[C@@H](N)CC(=O)O)[C@@H](C)O)[C@@H](C)CC)C(=O)N[C@@H](Cc1ccccc1)C(=O)N1CCC[C@H]1CC(=O)N1CCC[C@H]1C(=O)N[C@@H](CCCNC(=N)N)C(N)=O [Pr16],50
3,CC[C@H](C)[C@H](NC(=O)[C@H](CS)NC(=O)[C@@H](NC(=O)[C@@H]1CCCN1C(=O)[C@H](Cc1ccccc1)NC(=O)[C@H](Cc1c[nH]cn1)NC(=O)[C@@H](NC(=O)[C@@H](N)CC(=O)O)[C@@H](C)O)[C@@H](C)CC)C(=O)N[C@H](CC(=O)N1CCC[C@@H]1C(=O)N1CCC[C@H]1CC(=O)N[C@@H](CCCNC(=N)N)C(N)=O)Cc1ccccc1 [Pr22] (H-DTHFPICI[β3hF][dP][β3hP]R-NH2),600
4,CC[C@H](C)[C@H](NC(=O)[C@H](CS)NC(=O)[C@@H](NC(=O)[C@@H]1CCCN1C(=O)[C@H](Cc1ccccc1)NC(=O)[C@H](Cc1c[nH]cn1)NC(=O)[C@@H](NC(=O)[C@@H](N)CC(=O)O)[C@@H](C)O)[C@@H](C)CC)C(=O)N[C@@H](Cc1ccccc1)C(=O)N1CCC[C@H]1CC(=O)N1CCC[C@H]1C(=O)N[C@@H](CCCCN)C(N)=O [Pr15],150
5,CC[C@H](C)[C@H](NC(=O)[C@H](CS)NC(=O)[C@@H](NC(=O)[C@@H]1CCCN1C(=O)[C@H](Cc1ccccc1)NC(=O)[C@H](Cc1c[nH]cn1)NC(=O)[C@@H](NC(=O)[C@@H](N)CC(=O)O)[C@@H](C)O)[C@@H](C)CC)C(=O)N[C@@H](Cc1ccccc1)C(=O)N1CCC[C@@H]1C(=O)N1CCC[C@H]1CC(=O)N[C@@H](CCCNC(=N)N)C(N)=O [Pr18],1000
6,CC[C@H](C)[C@H](NC(=O)[C@H](CS)NC(=O)[C@@H](NC(=O)[C@@H]1CCCN1C(=O)[C@H](Cc1ccccc1)NC(=O)[C@H](Cc1c[nH]cn1)NC(=O)[C@@H](NC(=O)[C@@H](N)CC(=O)O)[C@@H](C)O)[C@@H](C)CC)C(=O)N[C@H](CC(=O)N1CCC[C@@H]1C(=O)N1CCC[C@H]1C(=O)N[C@@H](CCCCN)C(N)=O)Cc1ccccc1 [Pr19] (H-DTHFPICI[β3hF][dP]PK-NH2),700
7,CC[C@H](C)[C@H](NC(=O)[C@H](CS)NC(=O)[C@@H](NC(=O)[C@@H]1CCCN1C(=O)[C@H](Cc1ccccc1)NC(=O)[C@H](Cc1c[nH]cn1)NC(=O)[C@@H](NC(=O)[C@@H](N)CC(=O)O)[C@@H](C)O)[C@@H](C)CC)C(=O)N[C@@H](Cc1ccccc1)C(=O)N1CCC[C@@H]1C(=O)N1CCC[C@H]1CC(=O)N[C@@H](CCCCN)C(N)=O [Pr17],300

# Same assay, conditions: concentration eliciting 50% of maximal loss of fluorescence generated by reference Hep25; 24 hours; read-out: EC50 (the source's name)
row,Compound,DC50 [nM]
1,HFPICIF-NH2 [Hep7ΔDT],700
2,CC[C@H](C)[C@H](NC(=O)[C@H](CS)NC(=O)[C@@H](NC(=O)[C@@H]1CCCN1C(=O)C[C@H](Cc1ccccc1)NC(=O)[C@H](Cc1c[nH]cn1)NC(=O)[C@@H](NC(=O)[C@@H](N)CC(=O)O)[C@@H](C)O)[C@@H](C)CC)C(=O)N[C@@H](Cc1ccccc1)C(N)=O [F4bhPhe],700
3,CC[C@H](C)[C@H](NC(=O)[C@H](CS)NC(=O)[C@@H](NC(=O)[C@@H]1CCCN1C(=O)[C@H](Cc1ccccc1)NC(=O)[C@H](Cc1c[nH]cn1)NC(=O)[C@@H](NC(=O)[C@@H](N)CC(=O)O)[C@@H](C)O)[C@@H](C)CC)C(=O)N[C@H](C(N)=O)C(c1ccccc1)c1ccccc1 [F9Dpa] (H-DTHFPICI[Dip]-NH2),70
4,DTHFPIAIF-NH2 [Hep9-C7A],> 10000
5,DTHFPIC-NH2 [Hep7],> 10000
6,CC[C@H](C)[C@H](NC(=O)[C@@H]1CCCN1C(=O)[C@H](Cc1ccccc1)NC(=O)[C@H](Cc1c[nH]cn1)NC(=O)[C@@H](NC(=O)[C@@H](N)CC(=O)O)[C@@H](C)O)C(=O)N[C@@H](C(=O)N[C@H](C(=O)N[C@@H](Cc1ccccc1)C(N)=O)[C@@H](C)CC)C(C)(C)S [(D)Pen],3000
7,HFPIC-NH2 [Hep5],> 10000
8,CC[C@H](C)[C@H](NC(=O)[C@H](CS)NC(=O)[C@@H](NC(=O)[C@@H]1CCCN1C(=O)[C@H](Cc1ccc(-c2ccccc2)cc1)NC(=O)[C@H](Cc1c[nH]cn1)NC(=O)[C@@H](NC(=O)[C@@H](N)CC(=O)O)[C@@H](C)O)[C@@H](C)CC)C(=O)N[C@@H](Cc1ccccc1)C(N)=O [F4Bip] (H-DTH[Bip]PICIF-NH2; N-terminus assumed),150
9,HFPICI-NH2 [Hep6],1000

# Results, then the compound that gave them:
row,DC50 [nM],Compound
1,200,CC[C@H](C)[C@H](NC(=O)[C@H](CS)NC(=O)[C@@H](NC(=O)[C@@H]1CCCN1C(=O)[C@H](Cc1ccccc1)NC(=O)[C@H](Cc1c[nH]cn1)NC(=O)[C@@H](NC(=O)[C@@H](N)CC(=O)O)[C@@H](C)O)[C@@H](C)CC)C(=O)N[C@H](CC(=O)N1CCC[C@@H]1C(=O)N1CCC[C@H]1C(=O)N[C@@H](CCCNC(=N)N)C(N)=O)Cc1ccccc1 [Pr20] (H-DTHFPICI[β3hF][dP]PR-NH2)
2,100,CC[C@H](C)[C@H](NC(=O)[C@H](CS)NC(=O)[C@@H](NC(=O)[C@@H]1CCCN1C(=O)[C@H](Cc1ccccc1)NC(=O)[C@H](Cc1c[nH]cn1)NC(=O)[C@@H](NC(=O)[C@@H](N)CC(=O)O)[C@@H](C)O)[C@@H](C)CC)C(=O)N[C@@H](Cc1ccccc1)C(=O)N1CCC[C@@H]1C(=O)N1CCC[C@H]1C(=O)N[C@@H](CCCCN)C(N)=O [Pr13]
3,700,CC[C@H](C)[C@H](NC(=O)[C@H](CSSC(C)(C)C)NC(=O)[C@@H](NC(=O)[C@@H]1CCCN1C(=O)[C@H](C)NC(=O)[C@H](Cc1c[nH]cn1)NC(=O)[C@@H](NC(=O)[C@@H](N)CC(=O)O)[C@@H](C)O)[C@@H](C)CC)C(=O)N[C@@H](Cc1ccccc1)C(N)=O [Hep9C7-SStBut] (H-DTHAPIC(StBu)IF-NH2)
4,900,CC[C@H](C)[C@H](NC(=O)[C@H](CCS)NC(=O)[C@@H](NC(=O)[C@@H]1CCCN1C(=O)[C@H](Cc1ccccc1)NC(=O)[C@H](Cc1c[nH]cn1)NC(=O)[C@@H](NC(=O)[C@@H](N)CC(=O)O)[C@@H](C)O)[C@@H](C)CC)C(=O)N[C@@H](Cc1ccccc1)C(N)=O [homoC]
5,10,"CC[C@H](C)[C@@H]1NC(=O)[C@@H](NC(=O)[C@@H](NC(=O)[C@@H]2CCCN2C(=O)[C@H](Cc2ccccc2)NC(=O)[C@H](Cc2c[nH]cn2)NC(=O)[C@@H](NC(=O)[C@@H](N)CC(=O)O)[C@@H](C)O)[C@@H](C)CC)CSSC[C@@H](C(=O)N[C@@H](CCCCN)C(=O)N[C@H](C(=O)O)[C@@H](C)O)NC(=O)[C@@H]2CSSC[C@@H]3NC(=O)[C@@H]4CSSC[C@H](NC(=O)[C@H](Cc5ccccc5)NC1=O)C(=O)N[C@@H](CSSC[C@H](NC(=O)[C@H](CCCCN)NC(=O)[C@H](CO)NC(=O)[C@H](CCCNC(=N)N)NC(=O)[C@H](Cc1c[nH]cn1)NC3=O)C(=O)NCC(=O)N[C@@H](CCSC)C(=O)N2)C(=O)NCC(=O)N4 [Hep25, reference compound]"
6,90,CC[C@H](C)[C@H](NC(=O)[C@H](CS)NC(=O)[C@@H](NC(=O)[C@@H]1CCCN1C(=O)[C@H](Cc1ccccc1)NC(=O)[C@H](Cc1c[nH]cn1)NC(=O)[C@@H](NC(=O)[C@@H](N)CC(=O)O)[C@@H](C)O)[C@@H](C)CC)C(=O)N[C@@H](Cc1ccccc1)C(=O)N1CCC[C@@H]1C(=O)N1CCC[C@H]1C(=O)N[C@@H](CCCNC(=N)N)C(N)=O [Pr14]
7,> 3000,DTHAPICIF-NH2 [Hep9F4A]

# Same assay, conditions: read-out: EC50; concentration eliciting 50% of maximal loss of fluorescence generated by reference Hep25; 24 hours
row,Compound,DC50 [nM]
1,CC[C@H](C)[C@H](NC(=O)[C@@H]1CSSC[C@H](N)C(=O)N[C@@H](Cc2c[nH]cn2)C(=O)N[C@@H](Cc2ccccc2)C(=O)N2CCC[C@H]2C(=O)N[C@@H]([C@@H](C)CC)C(=O)N1)C(=O)N[C@@H](Cc1ccccc1)C(N)=O [Cyc-2] (H-CHFPICIF-NH2; disulfide 1-6),> 10000
